Three molecules from patent US9113629B2, “4-amino-6-(4-substituted-phenyl)-picolinates and 6-amino-2-(4-substituted-phenyl)-pyrimidine-4-carboxylates and their use as herbicides” (DOW AGROSCIENCES LLC, priority 2013, dated 2015) can be followed below.

For series [1], the system named is Key Grass and Sedge Weeds as well as Grass Crops. Kind of series: Post-emergent Test II herbicidal activity (Table 6). Conditions: post-emergence, 336 h; for pest or weed control at 70 g/ha: application rate 70 g ai/ha; for pest or weed control at 140 g/ha: application rate 140 g ai/ha. It is filed as in vivo. Put shortly:
(§1)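 Spray rates: a highest rate plus ½×, ¼×, ⅛×, 1/16×, all delivered at 187 L/ha to plants at the first–second true leaf stage. Readout is a visual percent injury score at 14 d, where 100 means complete kill.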

The test system of series [2] is Key Broadleaf Weed and Crop Species. Kind of series: Post-emergent Test II herbicidal activity (Table 5). In kind it is in vivo. Conditions: post-emergence, 336 h, 14 days after application; for pest or weed control at 70 g/ha: application rate 70 g ai/ha. In short, it runs like this: as §1
Setting [3] is: Triticum aestivum, TRZSS (wheat), read-out: Visual Growth Reduction (%) 14 Days After Application, TRZSS.
Where [4] appears, read: CYPES: yellow nutsedge (Cyperus esculentus), read-out: Visual Growth Reduction (%) 14 Days After Application, CYPES.
Setting [5] is: DIGSA: crabgrass (Digitaria sanguinalis), read-out: Visual Growth Reduction (%) 14 Days After Application, DIGSA.
The mark [6] stands for this setting: ORYSA: rice (Oryza sativa), read-out: Visual Growth Reduction (%) 14 Days After Application, ORYSA.
Where [7] appears, read: SORVU: grain sorghum (Sorghum vulgare), read-out: Visual Growth Reduction (%) 14 Days After Application, SORVU.
The mark [8] stands for this setting: ZEAMX: maize, corn (Zea mays), read-out: Visual Growth Reduction (%) 14 Days After Application, ZEAMX.
Where [9] appears, read: ABUTH: velvetleaf (Abutilon theophrasti), read-out: Visual Growth Reduction (%) 14 Days After Application, ABUTH.
Where [10] appears, read: ABUTH: velvetleaf (Abutilon theophrasti), application rate 140 g ai/ha, read-out: Visual Growth Reduction (%) 14 Days After Application, ABUTH.
Where [11] appears, read: AMARE: redroot pigweed (Amaranthus retroflexus), read-out: Visual Growth Reduction (%) 14 Days After Application, AMARE.
Setting [12] is: AMARE: redroot pigweed (Amaranthus retroflexus), application rate 140 g ai/ha, read-out: Visual Growth Reduction (%) 14 Days After Application, AMARE.
Where [13] appears, read: BRSNN: oilseed-rape, canola (Brassica napus), read-out: Visual Growth Reduction (%) 14 Days After Application, BRSNN.
Where [14] appears, read: BRSNN: oilseed-rape, canola (Brassica napus), application rate 140 g ai/ha, read-out: Visual Growth Reduction (%) 14 Days After Application, BRSNN.
[15] abbreviates: CHEAL: lambsquarters (Chenopodium album), read-out: Visual Growth Reduction (%) 14 Days After Application, CHEAL.
[16] abbreviates: CHEAL: lambsquarters (Chenopodium album), application rate 140 g ai/ha, read-out: Visual Growth Reduction (%) 14 Days After Application, CHEAL.
[17] abbreviates: EPHHL: wild poinsettia (Euphorbia heterophylla), read-out: Visual Growth Reduction (%) 14 Days After Application, EPHHL.
[18] abbreviates: EPHHL: wild poinsettia (Euphorbia heterophylla), application rate 140 g ai/ha, read-out: Visual Growth Reduction (%) 14 Days After Application, EPHHL.
Where [19] appears, read: HELAN: sunflower (Helianthus annuus), read-out: Visual Growth Reduction (%) 14 Days After Application, HELAN.
The mark [20] stands for this setting: HELAN: sunflower (Helianthus annuus), application rate 140 g ai/ha, read-out: Visual Growth Reduction (%) 14 Days After Application, HELAN.
[21] abbreviates: VIOTR: wild pansy (Viola tricolor), read-out: Visual Growth Reduction (%) 14 Days After Application, VIOTR.
[22] abbreviates: VIOTR: wild pansy (Viola tricolor), application rate 140 g ai/ha, read-out: Visual Growth Reduction (%) 14 Days After Application, VIOTR.

Read-outs that look alike come from different tables or passages of the source.

One may read the melting point as the temperature, or range, at which the solid turns liquid.

In turn, `Nc1c(F)c(-c2ccc(OC(F)F)c(F)c2)nc(C(=O)O)c1Cl` [Compound 92, 4-amino-3-chloro-6-(4-(difluoromethoxy)-3-fluorophenyl)-5-fluoropicolinic acid] displayed a melting point of 147 to 149 °C. In series [1] (setting [3]), the pest or weed control at 70 g/ha is 30 to 44% and the pest or weed control at 140 g/ha lay in the range of 45 to 59%. For the same molecule, in series [1] (setting [4]), the pest or weed control at 70 g/ha is 0 to 29% and the pest or weed control at 140 g/ha lay in the range of 0 to 29%. Besides, in series [1] (setting [5]), the pest or weed control at 70 g/ha is 60 to 74% and the pest or weed control at 140 g/ha was in the range of 60 to 74%. In series [1] (setting [6]), the pest or weed control at 70 g/ha lay within 0 to 29% and the pest or weed control at 140 g/ha was in the range of 0 to 29%. In series [1] (setting [7]), the pest or weed control at 70 g/ha was 30 to 44% and the pest or weed control at 140 g/ha was in the range of 45 to 59%. Moreover, in series [1] (setting [8]), the pest or weed control at 70 g/ha lay in the range of 60 to 74% and the pest or weed control at 140 g/ha was in the range of 60 to 74%. Besides, in series [2] (setting [9]), the pest or weed control at 70 g/ha was in the range of 0 to 29%. Also, in series [2] (setting [10]), the pest or weed control at 140 g/ha was 0 to 29%. The pest or weed control at 70 g/ha in series [2] (setting [11]) is 45 to 59%. Also, in series [2] (setting [12]), the pest or weed control at 140 g/ha lay in the range of 60 to 74%. In addition, the pest or weed control at 70 g/ha in series [2] (setting [13]) lay within 30 to 44%. Also, in series [2] (setting [14]), the pest or weed control at 140 g/ha is 45 to 59%. In addition, in series [2] (setting [15]), the pest or weed control at 70 g/ha is 85 to 94%. Also, in series [2] (setting [16]), the pest or weed control at 140 g/ha was in the range of 85 to 94%. The pest or weed control at 70 g/ha in series [2] (setting [17]) was 95 to 100%. For the same molecule, in series [2] (setting [18]), the pest or weed control at 140 g/ha lay within 95 to 100%. The pest or weed control at 70 g/ha in series [2] (setting [19]) was 60 to 74%. The pest or weed control at 140 g/ha in series [2] (setting [20]) is 75 to 84%. Moreover, the pest or weed control at 70 g/ha in series [2] (setting [21]) lay within 0 to 29%. Besides, in series [2] (setting [22]), the pest or weed control at 140 g/ha was 0 to 29%.

For the molecule `COC(=O)c1nc(-c2ccc(OC(F)(F)F)cc2)nc(N)c1OC` [Compound 30], the melting point is 122 to 123.6 °C. In addition, in series [1] (setting [3]), the pest or weed control at 140 g/ha is 0 to 29%. Further, the pest or weed control at 140 g/ha in series [1] (setting [4]) was in the range of 0 to 29%. For the same molecule, the pest or weed control at 140 g/ha in series [1] (setting [5]) was in the range of 0 to 29%. For the same molecule, the pest or weed control at 140 g/ha in series [1] (ECHCG: barnyardgrass (Echinochloa crus-galli), read-out: Visual Growth Reduction (%) 14 Days After Application, ECHCG) is 0 to 29%. Besides, the pest or weed control at 140 g/ha in series [1] (setting [6]) lay within 0 to 29%. The pest or weed control at 140 g/ha in series [1] (SETFA: giant foxtail (Setaria faberi), read-out: Visual Growth Reduction (%) 14 Days After Application, SETFA) was 0 to 29%. Moreover, in series [1] (setting [7]), the pest or weed control at 140 g/ha lay within 0 to 29%. Besides, the pest or weed control at 140 g/ha in series [1] (setting [8]) lay in the range of 0 to 29%. In series [2] (ABUTH: velvetleaf (Abutilon theophrasti), 140 g ai/ha, post-emergent, read-out: Visual Growth Reduction (%) 14 Days After Application ABUTH), the pest or weed control at 140 g/ha is 45 to 59%. Further, the pest or weed control at 140 g/ha in series [2] (AMARE: redroot pigweed (Amaranthus retroflexus), 140 g ai/ha, post-emergent, read-out: Visual Growth Reduction (%) 14 Days After Application AMARE) lay within 0 to 29%. For the same molecule, the pest or weed control at 140 g/ha in series [2] (BRSNN: oilseed-rape, canola (Brassica napus), 140 g ai/ha, post-emergent, read-out: Visual Growth Reduction (%) 14 Days After Application BRSNN) lay in the range of 0 to 29%. Further, the pest or weed control at 140 g/ha in series [2] (CHEAL: lambsquarters (Chenopodium album), 140 g ai/ha, post-emergent, read-out: Visual Growth Reduction (%) 14 Days After Application CHEAL) lay in the range of 0 to 29%. The pest or weed control at 140 g/ha in series [2] (EPHHL: wild poinsettia (Euphorbia heterophylla), 140 g ai/ha, post-emergent, read-out: Visual Growth Reduction (%) 14 Days After Application EPHHL) was in the range of 95 to 100%. Further, the pest or weed control at 140 g/ha in series [2] (HELAN: sunflower (Helianthus annuus), 140 g ai/ha, post-emergent, read-out: Visual Growth Reduction (%) 14 Days After Application HELAN) is 0 to 29%. In addition, the pest or weed control at 140 g/ha in series [2] (VIOTR: wild pansy (Viola tricolor), 140 g ai/ha, post-emergent, read-out: Visual Growth Reduction (%) 14 Days After Application VIOTR) was in the range of 0 to 29%.

In turn, `Nc1c(F)c(-c2ccc(OC(F)F)cc2F)nc(C(=O)O)c1Cl` [Compound 140] had a melting point of 149 to 151 °C. Also, in series [1] (setting [3]), the pest or weed control at 70 g/ha fell in the range of 0 to 29% and the pest or weed control at 140 g/ha fell in the range of 0 to 29%. In addition, in series [1] (setting [4]), the pest or weed control at 70 g/ha is 0 to 29% and the pest or weed control at 140 g/ha lay in the range of 0 to 29%. In series [1] (setting [5]), the pest or weed control at 70 g/ha lay in the range of 0 to 29% and the pest or weed control at 140 g/ha is 0 to 29%. Also, in series [1] (setting [6]), the pest or weed control at 70 g/ha lay in the range of 0 to 29% and the pest or weed control at 140 g/ha fell in the range of 0 to 29%. Moreover, in series [1] (setting [7]), the pest or weed control at 70 g/ha was 0 to 29% and the pest or weed control at 140 g/ha was in the range of 0 to 29%. Further, in series [1] (setting [8]), the pest or weed control at 70 g/ha is 0 to 29% and the pest or weed control at 140 g/ha lay in the range of 0 to 29%. In series [2] (setting [9]), the pest or weed control at 70 g/ha lay within 0 to 29%. Further, in series [2] (setting [10]), the pest or weed control at 140 g/ha lay in the range of 0 to 29%. The pest or weed control at 70 g/ha in series [2] (setting [11]) fell in the range of 0 to 29%. Also, the pest or weed control at 140 g/ha in series [2] (setting [12]) was in the range of 0 to 29%. In addition, in series [2] (setting [13]), the pest or weed control at 70 g/ha was in the range of 0 to 29%. Moreover, in series [2] (setting [14]), the pest or weed control at 140 g/ha was 0 to 29%. Moreover, in series [2] (setting [15]), the pest or weed control at 70 g/ha lay within 0 to 29%. In addition, in series [2] (setting [16]), the pest or weed control at 140 g/ha was 0 to 29%. Moreover, in series [2] (setting [17]), the pest or weed control at 70 g/ha lay in the range of 85 to 94%. In series [2] (setting [18]), the pest or weed control at 140 g/ha lay in the range of 85 to 94%. Besides, the pest or weed control at 70 g/ha in series [2] (setting [19]) lay within 60 to 74%. Also, the pest or weed control at 140 g/ha in series [2] (setting [20]) was in the range of 75 to 84%. For the same molecule, in series [2] (setting [21]), the pest or weed control at 70 g/ha fell in the range of 0 to 29%. In addition, in series [2] (setting [22]), the pest or weed control at 140 g/ha was in the range of 0 to 29%.
